The text below walks through data of ChEMBL document CHEMBL6134844, “Development of Next-Generation Antimalarial Acridones with Radical Cure Potential” (J Med Chem, 2025).

The term pIC50 denotes −log10 of the IC50, conventionally taken in molar units. For orientation: CC50 means the concentration that lowers cell viability or growth by half.

Series [1] deals with Plasmodium falciparum. Nature of the series: Antiplasmodial activity against asexual blood-stage (ABS) CQ-sensitive Plasmodium falciparum D6 infected in human erythrocytes assessed as reduction in fluorescence measured after 72 hrs by Malaria SYBR Green I-based Fluorescence (MSF) assay. The class given is functional, organism-based. As to conditions: D6, Erythrocyte.
Series [2] deals with Plasmodium falciparum. Put plainly: Antiplasmodial activity against asexual blood-stage (ABS) MDR Plasmodium falciparum Dd2 infected in human erythrocytes assessed as reduction in fluorescence measured after 72 hrs by Malaria SYBR Green I-based Fluorescence (MSF) assay. The class given is functional, organism-based. As to conditions: Dd2, Erythrocyte.
The subject of series [3] is Plasmodium falciparum. Put plainly: Antiplasmodial activity against asexual blood-stage (ABS) ATV-resistant clinical isolate Plasmodium falciparum Tm90-C2B infected in human erythrocytes assessed as reduction in fluorescence measured after 72 hrs by Malaria SYBR Green I-based Fluorescence (MSF) assay. The class given is functional, organism-based. As to conditions: Erythrocyte.

Series [4] concerns HepG2. Nature of the series: Cytotoxicity against human HepG2 cells assessed as cell viability measured after 48 hrs by MTT assay. The class given is functional, cell-based. Particulars: HepG2, 48 h. In general terms: Formazan colour is commonly taken as a measure of viable cells.
The test system of series [5] is Plasmodium cynomolgi. Put plainly: Antiplasmodial activity against hypnozoite Plasmodium cynomolgi B strain infected in Macaca mulatta hepatocytes incubated with sporozoite containing salivary gland homogenate obtained from dissected Anopheles dirus mosquitoes (infected with Plasmodium cynomolgi B strain) treatment started on day 4 post infection and continued daily for 4 days into fresh changed media until day 8 assessed as Liver stage (LS) activity by measuring prophylactic mode by immunofluorescent staining analysis. The class given is functional, organism-based. As to conditions: Hepatocyte.

Series [6] relates to Plasmodium cynomolgi. Put plainly: Antiplasmodial activity against schizont Plasmodium cynomolgi B strain infected in Macaca mulatta hepatocytes incubated with sporozoite containing salivary gland homogenate obtained from dissected Anopheles dirus mosquitoes (infected with Plasmodium cynomolgi B strain) treatment started on day 4 post infection and continued daily for 4 days into fresh changed media until day 8 assessed as Liver stage (LS) activity by measuring prophylactic mode by immunofluorescent staining analysis. Format: functional, organism-based. Particulars: Hepatocyte.

The test system of series [7] is Plasmodium cynomolgi. Nature of the series: Antiplasmodial activity against hypnozoite Plasmodium cynomolgi B strain infected in Macaca mulatta hepatocytes incubated with sporozoite containing salivary gland homogenate obtained from dissected Anopheles dirus mosquitoes (infected with Plasmodium cynomolgi B strain) treatment started on day 4 post infection and continued daily for 4 days into fresh changed media until day 8 assessed as Liver stage (LS) activity by measuring radical cure mode by immunofluorescent staining analysis. The class given is functional, organism-based. As to conditions: Hepatocyte.

Series [8] has as its system Plasmodium cynomolgi. Put plainly: Antiplasmodial activity against schizont Plasmodium cynomolgi B strain infected in Macaca mulatta hepatocytes incubated with sporozoite containing salivary gland homogenate obtained from dissected Anopheles dirus mosquitoes (infected with Plasmodium cynomolgi B strain) treatment started on day 4 post infection and continued daily for 4 days into fresh changed media until day 8 assessed as Liver stage (LS) activity by measuring radical cure mode by immunofluorescent staining analysis. The class given is functional, organism-based. As to conditions: Hepatocyte.

Series [9] is described as follows: Selectivity index, ratio of CC50 for Macaca mulatta hepatocytes to IC50 for antiplasmodial activity against hypnozoite Plasmodium cynomolgi B strain infected in Macaca mulatta hepatocytes incubated with sporozoite containing salivary gland homogenate obtained from dissected Anopheles dirus mosquitoes (infected with Plasmodium cynomolgi B strain) treatment started on day 4 post infection and continued daily for 4 days into fresh changed media until day 8 assessed as Liver stage (LS) activity by measuring prophylactic mode by immunofluorescent staining analysis. The class given is toxicity, cell-based. Particulars: rhesus monkey, read-out: Selectivity Index.

Series [10] in a line: Selectivity index, ratio of CC50 for Macaca mulatta hepatocytes to IC50 for antiplasmodial activity against schizont Plasmodium cynomolgi B strain infected in Macaca mulatta hepatocytes incubated with sporozoite containing salivary gland homogenate obtained from dissected Anopheles dirus mosquitoes (infected with Plasmodium cynomolgi B strain) treatment started on day 4 post infection and continued daily for 4 days into fresh changed media until day 8 assessed as Liver stage (LS) activity by measuring prophylactic mode by immunofluorescent staining analysis. Format: toxicity, cell-based. Particulars: rhesus monkey, read-out: Selectivity Index.

Series [11] in a line: Selectivity index, ratio of CC50 for Macaca mulatta hepatocytes to IC50 for antiplasmodial activity against hypnozoite Plasmodium cynomolgi B strain infected in Macaca mulatta hepatocytes incubated with sporozoite containing salivary gland homogenate obtained from dissected Anopheles dirus mosquitoes (infected with Plasmodium cynomolgi B strain) treatment started on day 4 post infection and continued daily for 4 days into fresh changed media until day 8 assessed as Liver stage (LS) activity by measuring radical cure mode by immunofluorescent staining analysis. The class given is toxicity, cell-based. As to conditions: rhesus monkey, read-out: Selectivity Index.

Series [12] in a line: Selectivity index, ratio of CC50 for Macaca mulatta hepatocytes to IC50 for antiplasmodial activity against schizont Plasmodium cynomolgi B strain infected in Macaca mulatta hepatocytes incubated with sporozoite containing salivary gland homogenate obtained from dissected Anopheles dirus mosquitoes (infected with Plasmodium cynomolgi B strain) treatment started on day 4 post infection and continued daily for 4 days into fresh changed media until day 8 assessed as Liver stage (LS) activity by measuring radical cure mode by immunofluorescent staining analysis. Format: toxicity, cell-based. Particulars: rhesus monkey, read-out: Selectivity Index.

Series [13] relates to Hepatocyte. Nature of the series: Cytotoxicity against Macaca mulatta hepatocytes assessed as cell viability measured after 48 hrs by MTT assay. Format: toxicity, cell-based. Particulars: rhesus monkey, 48 h.
The conditions of series [14]: mouse, microsomes, 1 h.
For series [15] the following is noted: human, microsomes, 1 h.

pIC50: −log10 of the molar value. Some results are limits rather than exact numbers.

As for `O=c1c2ccccc2[nH]c2cc(Oc3ccc(OC(F)(F)F)cc3)ccc12`, the pIC50 was 10.72 in series [1]; 10.52 in series [2]; 8.48 in series [3]; less than 3.70 in series [4]; 5.80 in [5]; 6.27 in series [6]. For the same compound, the figures for the pIC50 in series [7] and in series [8] were 5.52 and 5.74, respectively. In addition, the selectivity ratio at 96 h in series [9] was 2.01; in series [10], 5.85; in [11] it was 1.05; in series [12], 1.72. The CC50 in series [13] is 3.16 µM. For the same compound, the CLH in series [14] turned out to be 11.5 µL/min/mg.

For the compound `O=c1c2c(F)cc(Cl)cc2[nH]c2cccc(Oc3ccc(OC(F)(F)F)cc3)c12`, the pIC50 in series [1] was 7.06; in [2], 6.73; in series [3], less than 5.60; in series [4] it was 3.72; in [5] it was less than 4.70; in series [6], 5.13. For the same compound, the pIC50 was less than 4.70 in [7] and 4.78 in [8]. For the same compound, the selectivity ratio at 96 h was more than 2.71 in series [10] and more than 1.2 in series [12]. For the same compound, the CC50 in series [13] was more than 20 µM. Besides, the t1/2 in [15] is more than 1 h. In series [14], this compound displayed a CLH of 45.4 µL/min/mg.

In the case of `COc1ccc(Oc2ccc3c(=O)c4c(F)cc(Cl)cc4[nH]c3c2)cc1`, the negative-log IC50 (pIC50) is 13.23 in [1]; 13.54 in [2]; 7.74 in series [3]; less than 3.70 in [4]; 5.35 in series [5]; 6.31 in series [6]. The pIC50 is 5.22 in series [7] and 6.03 in series [8]. Moreover, the selectivity ratio at 96 h worked out at 2.4 in series [9], 22 in series [10], 1.79 in [11] and 11.5 in [12]. Moreover, in series [13], the CC50 amounted to 10.8 µM. The t1/2 in series [15] was more than 1 h. In addition, the CLH in series [14] was less than 3.125 µL/min/mg.

Turning to `O=c1c2ccc(OCc3cccc(C(F)(F)F)c3)cc2[nH]c2ccc(Cl)c(F)c12`, the negative logarithm of the IC50 (pIC50) in [1] is 12.52; in series [2] it was 12.40; in [3] it was 6.93; in series [4], less than 3.70; in [5], 6.40; in [6], 7.10. The values for the negative logarithm of the IC50 (pIC50) in series [7] and in [8] were 5.66 and 5.82, respectively. The selectivity ratio at 96 h in series [9] was more than 50; in series [10], more than 250; in series [11], more than 9.13; in [12], more than 13.1. The half-maximal cytotoxic concentration (CC50) in [13] is more than 20 µM. This compound also came in with a t1/2 in series [15] of more than 1 h. This compound yielded a CLH in series [14] of 15.6 µL/min/mg.

Turning to `O=c1c2cccc(Oc3ccc(OC(F)(F)F)cc3)c2[nH]c2cc(Cl)cc(F)c12`, the pIC50 is 6.42 in series [1]; 6.73 in series [2]; less than 5.60 in series [3]; 4.03 in series [4]; 4.87 in series [5]; 5.48 in [6]. Also, the negative-log IC50 (pIC50) in [7] and in series [8] was less than 4.70 throughout. Further, the results for the selectivity ratio at 96 h in [9] and in series [10] were more than 1.47 and more than 6.01, respectively. Besides, in series [13], the 50% cytotoxic concentration (CC50) is more than 20 µM. In [15], this compound registered a t1/2 of more than 1 h. The CLH in [14] worked out at 25.5 µL/min/mg.

For `O=c1c2ccc(Oc3ccc(OC(F)(F)F)cc3)cc2[nH]c2ccc(Cl)c(F)c12`, the negative-log IC50 (pIC50) in [1] is 9.72; in series [2], 9.70; in [3] it was 6.56; in [4] it was less than 3.70; in [5], 6.40; in series [6], 7.30. The figures for the negative-log IC50 (pIC50) in series [7] and in [8] were 5.39 and 5.68, respectively. Also, the selectivity ratio at 96 h in [9] worked out at 11.4; in [10] it was 91.6; in [11], 1.11; in series [12], 2.17. Moreover, the cytotoxic concentration (CC50) in series [13] was found to be 4.58 µM. In series [15], this compound returned a t1/2 of more than 1 h. In series [14], the CLH was less than 3.125 µL/min/mg.

For the compound `CO[C@@H]1[C@@H](OC)[C@H](C)[C@@](O)(CC(=O)O)O[C@H]1[C@H](C)[C@H]1O[C@@]2(CC[C@@](C)([C@H]3CC[C@@](C)([C@@H]4O[C@@H]([C@H]5O[C@](C)(O)[C@H](C)C[C@@H]5C)C[C@@H]4O[C@@H]4C[C@H](OC)[C@@H](OC)[C@H](C)O4)O3)O2)C[C@H](O)[C@H]1C` [MADURAMICIN ACID], the pIC50 in series [5] was 8.00; in series [6], 7.52; in series [7], 7.52; in series [8] it was 7.40. In addition, the selectivity ratio at 96 h is 236 in [9], 78.7 in [10], 78.7 in series [11] and 59 in [12]. Besides, the CC50 in series [13] is 2.36 µM.

For the compound `CN1CCC(Oc2ccc3c(=O)c4c(F)cc(Cl)cc4[nH]c3c2)CC1`, the negative logarithm of the IC50 (pIC50) in series [1] is 7.95; in series [2], 7.64; in series [3] it was less than 5.60; in series [4], 4.25; in series [5], 5.24; in [6], 6.27. Moreover, the values for the negative-log IC50 (pIC50) in series [7] and in series [8] were 4.74 and 5.01, respectively. In addition, the selectivity ratio at 96 h was more than 3.51 in series [9], more than 37 in series [10], more than 1.1 in series [11] and more than 2.02 in [12]. In addition, the half-maximal cytotoxic concentration (CC50) in [13] is more than 20 µM. This compound showed a CLH in series [14] of 209.5 µL/min/mg.

With `O=c1c2ccc(Oc3ccccc3OC(F)(F)F)cc2[nH]c2cc(Cl)cc(F)c12`, the pIC50 in series [1] is 11.30; in series [2], 11.30; in [3], 7.54; in series [4], less than 3.70; in series [5], 5.86; in series [6], 7.10. Also, the negative logarithm of the IC50 (pIC50) was 5.34 in series [7] and 5.38 in series [8]. Further, the selectivity ratio at 96 h is 6.72 in series [9], 115 in series [10], 2.02 in series [11] and 2.19 in [12]. The cytotoxic concentration (CC50) in [13] was determined as 9.21 µM. The compound also came in with a CLH in [14] of 72.3 µL/min/mg.

On to `O=c1c2ccc(Oc3ccc(OC(F)(F)F)cc3)cc2[nH]c2cc(Cl)c(F)cc12`, for which the pIC50 is 7.84 in [1]; 7.95 in [2]; 5.82 in series [3]; less than 3.70 in [4]; 5.89 in series [5]; 6.57 in series [6]. Besides, the negative logarithm of the IC50 (pIC50) in [7] and in series [8] was less than 4.70 in each case. Further, the selectivity ratio at 96 h in [9] is more than 15.5; in series [10], more than 74.1. For the same compound, the half-maximal cytotoxic concentration (CC50) in series [13] is more than 20 µM. Moreover, the t1/2 in [15] is more than 1 h. The same compound came in with a CLH in series [14] of 177 µL/min/mg.

Regarding `O=c1c2ccc(OC3CCNCC3)cc2[nH]c2cc(Cl)cc(F)c12`, the pIC50 was 6.18 in series [1], 6.92 in series [2], less than 5.60 in series [3] and 4.42 in series [4].

With `O=c1c2ccc(OC3CCNCC3)cc2[nH]c2cc(F)cc(Cl)c12`, the pIC50 in [1] is 7.57; in [2] it was 7.50; in series [3], less than 5.60; in [4] it was 4.31; in series [5], 5.23; in series [6] it was 5.39. The negative logarithm of the IC50 (pIC50) in [7] is less than 4.70; in series [8], 4.86. Further, the figures for the selectivity ratio at 96 h in [9], in series [10] and in series [12] were more than 3.36, more than 4.92 and more than 1.45, respectively. Besides, in [13], the CC50 was more than 20 µM. This compound also had a t1/2 in [15] of more than 1 h. Also, the CLH in [14] stood at 72.1 µL/min/mg.
